Test results published in ChEMBL document CHEMBL1144462, “Spread in an Italian hospital of a clonal Acinetobacter baumannii strain producing the TEM-92 extended-spectrum beta-lactamase” (2007).

These molecules were tested on Acinetobacter baumannii (assay: Antibacterial activity against Acinetobacter baumannii by CLSI method).
Type: functional
For `CO/N=C(\C(=O)N[C@@H]1C(=O)N2C(C(=O)O)=C(COC(C)=O)CS[C@H]12)c1csc(N)n1` [CEFOTAXIME], the MIC was no less than 16 µg/mL.
In the case of `C[C@@H](O)[C@H]1C(=O)N2C(C(=O)O)=C(SCCNC=N)C[C@H]12` [IMIPENEM ANHYDROUS], the MIC is reported as no less than 8 µg/mL.
`CC(C)(O/N=C(\C(=O)N[C@@H]1C(=O)N2C(C(=O)[O-])=C(C[n+]3ccccc3)CS[C@H]12)c1csc(N)n1)C(=O)O` [CEFTAZIDIME] was tested, and the MIC was no less than 16 µg/mL.

These molecules were tested on Acinetobacter baumannii (assay: Antibacterial activity against TEM92 ESBL-producing Acinetobacter baumannii by CLSI method).
Type: functional
`NC[C@H]1O[C@H](O[C@H]2[C@H](O)[C@@H](O[C@H]3O[C@H](CO)[C@@H](O)[C@H](N)[C@H]3O)[C@H](N)C[C@@H]2N)[C@H](N)C[C@@H]1O` [TOBRAMYCIN] showed an MIC greater than 32 µg/mL.
Molecule `CCN1CCN(C(=O)N[C@@H](C(=O)N[C@@H]2C(=O)N3[C@@H]2SC(C)(C)[C@@H]3C(=O)O)c2ccccc2)C(=O)C1=O` [PIPERACILLIN] has an MIC greater than 128 µg/mL.
Molecule `C[C@@H](O)[C@H]1C(=O)N2C(C(=O)O)=C(S[C@@H]3CN[C@H](C(=O)N(C)C)C3)[C@H](C)[C@H]12` [MEROPENEM] has an MIC of no more than 2 µg/mL.
Work on `C[C@H]1COc2c(N3CCN(C)CC3)c(F)cc3c(=O)c(C(=O)O)cn1c23.C[C@H]1COc2c(N3CCN(C)CC3)c(F)cc3c(=O)c(C(=O)O)cn1c23.O` [LEVOFLOXACIN] yielded an MIC greater than 32 µg/mL.
`CO/N=C(\C(=O)N[C@@H]1C(=O)N2C(C(=O)O)=C(COC(C)=O)CS[C@H]12)c1csc(N)n1` [CEFOTAXIME] was tested, and the MIC was greater than 128 µg/mL.
Work on `C[C@@H](O)[C@H]1C(=O)N2C(C(=O)O)=C(SCCNC=N)C[C@H]12` [IMIPENEM ANHYDROUS] yielded an MIC of no more than 1 µg/mL.
Molecule `CC(C)(O/N=C(\C(=O)N[C@@H]1C(=O)N2C(C(=O)[O-])=C(C[n+]3ccccc3)CS[C@H]12)c1csc(N)n1)C(=O)O` [CEFTAZIDIME] has an MIC greater than 128 µg/mL.
`NCC[C@H](O)C(=O)N[C@@H]1C[C@H](N)[C@@H](O[C@H]2O[C@H](CN)[C@@H](O)[C@H](O)[C@H]2O)[C@H](O)[C@H]1O[C@H]1O[C@H](CO)[C@@H](O)[C@H](N)[C@H]1O` [AMIKACIN] was tested, and the MIC was no more than 8 µg/mL.
`CO/N=C(\C(=O)N[C@@H]1C(=O)N2C(C(=O)O)=C(CSc3nc(=O)c(O)nn3C)CS[C@H]12)c1csc(N)n1` [CEFTRIAXONE] showed an MIC greater than 128 µg/mL.
Molecule GENTAMICIN has an MIC greater than 128 µg/mL.
